Measured values as given in patent publication US20210062159A1, “CELL AGGREGATION PROMOTER” (KANEKA CORPORATION, priority 2017, published 2021).

Experiments:
Format in all cases: cell-based
[1] = test system: human iPS cells (TkDN4-M cell lines); assay: Number of dead cells, Cytotoxicity LDH Assay Kit-WST, Day 1 of suspension culture; conditions: 10 μM CCG-1423, 2.5 μM Y-27632, Day 1 of culture, FIG. 2
Procedure: Human iPS cells that had been cultured using the protocol of Example 1 were treated with Accutase for 3 to 5 minutes and were detached and dispersed to single cells. The resulting cells were suspended in Essential 8™ culture medium containing a final concentration of 5 mg/mL of BSA (Wako Pure Chemical Industries, Ltd.) and a final concentration of 2.5 μM of Y-27632 (Wako Pure Chemical Industries, Ltd.), and a portion thereof was stained with trypan blue and the number of cells was counted. The cell suspension was prepared so as to contain 2×10^5 cells per ml. Separately, the cell aggregation promoter was adjusted so that the final concentration of CCG-1423 (Cayman, 10010350) was 4.55 mg/mL (10 mM), then the adjusted cell aggregation promoter was added to the cell suspension so that the final concentration of CCG-1423 was 10 μM. Then the cells were seeded at a ratio of 1.3 mL/well in a 12-well plate for suspension culture (Sumitomo Bakelite Co., Ltd.). […]
At the next day after the start of culture (Day 1 of culture), images were obtained by phase contrast microscopy, and the number of dead cells was calculated with Cytotoxicity LDH Assay Kit-WST (Peer Chemistry Research Institute, Inc.).

[2] = test system: human iPS cells (TkDN4-M cell lines); assay: Glucose consumption of suspension culture (biosensor BF-5iD); conditions: Day 1 to Day 5 of culture, CCG-1423 added condition, FIG. 4
Procedure: A cell suspension was prepared in the same manner as in Example 2, and separately, the cell aggregation promoter was adjusted so that the final concentration of CCG-1423 (same as above) was 4.55 mg/mL (10 mM), then the adjusted cell aggregation promoter was added to the cell suspension so that the final concentration of CCG-1423 was 10 μM, and the cells were seeded at a ratio of 4 mL/well in a 6-well plate for suspension culture (Sumitomo Bakelite Co., Ltd.). The cell-seeded plate was subjected to a swirling culture on a rotary shaker (OPTIMA, Inc.) at a speed of 90 rpm along the horizontal plane to draw a circle with a swirling width (diameter) of 25 mm and cells were cultured in suspension under a condition at 5% CO2 and 37° C. […] While 208 cell aggregates in images obtained at Day 1 of culture being observed and compared using a micrograph scale, the width (referred to as “φ”) of the widest portion of each cell aggregate was measured, distribution thereof was examined, and average±standard deviation was calculated. The concentration of glucose contained in the culture supernatant collected at the time of culture medium exchange was measured with biosensor BF-5iD (Prince Measuring Equipment Co., Ltd.) to calculate glucose consumption.

[3] = test system: human iPS cells (TkDN4-M cell lines); assay: Cell yield at Day 5 of suspension culture (trypan blue, hemocytometer); conditions: Day 5 of culture, aggregates formed with 10 μM CCG-1423, FIG. 5
Procedure: A cell suspension was prepared in the same manner as in Example 2, and separately, the cell aggregation promoter was adjusted so that the final concentration of CCG-1423 (same as above) was 4.55 mg/mL (10 mM), then the adjusted cell aggregation promoter was added to the cell suspension so that the final concentration of CCG-1423 was 10 μM, and the cells were seeded at a ratio of 4 mL/well in a 6-well plate for suspension culture (Sumitomo Bakelite Co., Ltd.). […] While 208 cell aggregates in images obtained at Day 1 of culture being observed and compared using a micrograph scale, the width (referred to as “φ”) of the widest portion of each cell aggregate was measured, distribution thereof was examined, and average±standard deviation was calculated. The concentration of glucose contained in the culture supernatant collected at the time of culture medium exchange was measured with biosensor BF-5iD (Prince Measuring Equipment Co., Ltd.) to calculate glucose consumption.
In addition, at Day 5 of culture, cell aggregates were collected, dispersed with Accutase, and then suspended in Essential 8™ culture medium containing 5 mg/mL BSA. A portion of this cell suspension was stained with trypan blue and the number of cells was counted. […] The resulting cells were analyzed on FACSVerse. […]
Cell yields were also measured at Day 5 of culture. […]

[4] = test system: human iPS cells (TkDN4-M cell lines); assay: Cell aggregate formation and size (widest portion) in swirling suspension culture, phase contrast microscopy; conditions: for Number of cell aggregates by size / Percentage of cell aggregates by size: CCG-1423 added
Procedure: A cell suspension was prepared in the same manner as in Example 2, and separately, the cell aggregation promoter was adjusted so that the final concentration of CCG-1423 (same as above) was 4.55 mg/mL (10 mM), then the adjusted cell aggregation promoter was added to the cell suspension so that the final concentration of CCG-1423 was 10 μM, and the cells were seeded at a ratio of 4 mL/well in a 6-well plate for suspension culture (Sumitomo Bakelite Co., Ltd.). The cell-seeded plate was subjected to a swirling culture on a rotary shaker (OPTIMA, Inc.) at a speed of 90 rpm along the horizontal plane to draw a circle with a swirling width (diameter) of 25 mm and cells were cultured in suspension under a condition at 5% CO2 and 37° C. After the next day of culture (Day 1 of culture), the culture medium was exchanged daily for a fresh culture medium (Essential 8™ culture medium containing BSA (Wako Pure Chemical Industries, Ltd.) at a final concentration of 5 mg/mL), and the culture continued until 5 days after the start of culture. A control test was conducted by culturing in the same way except for using CCG-1423 and Y-27632 free culture media. Images were obtained by phase contrast microscopy every day during culture. While 208 cell aggregates in images obtained at Day 1 of culture being observed and compared using a micrograph scale, the width (referred to as “φ”) of the widest portion of each cell aggregate was measured, distribution thereof was examined, and average±standard deviation was calculated. The concentration of glucose contained in the culture supernatant collected at the time of culture medium exchange was measured with biosensor BF-5iD (Prince Measuring Equipment Co., Ltd.) to calculate glucose consumption.

[5] = test system: human iPS cells (TkDN4-M cell lines); assay: Percentage of cells positive for undifferentiation markers (SOX2, OCT4, Nanog), flow cytometry; conditions: Day 5 of culture, aggregates produced in medium comprising CCG-1423, FIG. 6
Procedure: In addition, at Day 5 of culture, cell aggregates were collected, dispersed with Accutase, and then suspended in Essential 8™ culture medium containing 5 mg/mL BSA. A portion of this cell suspension was stained with trypan blue and the number of cells was counted. After the above cell suspensions were centrifuged at 300 g for 3 minutes, the supernatant was then removed, and the cells were washed with PBS (phosphate buffered saline). Next, the cells were fixed with 4% paraformaldehyde (Wako Pure Chemical Industries, Ltd.) at room temperature for 20 minutes, then washed 3 times with PBS. After cells were resuspended with 300 μL of PBS, 3 mL of cold methanol was added while stirring with voltex, and permeabilized at −20° C. overnight or more. After 3 washes with 3% FBS (fetal bovine serum)/PBS, cells were resuspended with 3% FBS (fetal bovine serum)/PBS and blocked at room temperature for 30 minutes to 1 hour. Subsequently, the cells were stained with fluorescently labeled anti-SOX2 antibodies (Cat. No. 656110, BioLegend, Inc.) and fluorescently labeled anti-OCT4 antibodies (Cat. No. 653703, BioLegend, Inc.) and fluorescently labeled anti-Nanog antibodies (Cat. No. 674010, BioLegend, Inc.) at 4° C. for 30 minutes to 1 hour. After washed once with 3% FBS (fetal bovine serum)/PBS, the cells were made to pass through a cell strainer. The resulting cells were analyzed on FACSVerse. A control test was conducted using cells that were treated in the same way except for reacting, instead of the above three antibodies (fluorescently labeled anti-SOX2 antibody, fluorescently labeled anti-OCT4 antibody, fluorescently labeled anti-Nanog antibody), with three fluorescently labeled isotype control antibodies (Cat. No. 400129, Cat. No. 400314, Cat. No. 400136; BioLegend, Inc.) corresponding to each of the above three antibodies.

[6] = test system: human iPS cells (TkDN4-M cell lines); assay: Cell aggregation assay, suspension culture, phase contrast microscopy at Day 1; conditions: 10 μM CCG-1423, 2.5 μM Y-27632, Day 1 of culture, 12-well plate, FIG. 1
Procedure: TkDN4-M cell lines (Institute of Medical Science, The University of Tokyo) were used as human iPS cells. Human iPS cells were seeded on cell culture dishes coated with Vitronectin (Thermo Fisher Scientific Co., Ltd.) and subjected to a maintenance culture using Essential 8™ (Thermo Fisher Scientific Co., Ltd.) as the culture medium. Accutase (Thermo Fisher Scientific Co., Ltd.) was used as a cell detachment agent during passage. In addition, when the cells were seeded, Y-27632 (Wako Pure Chemical Industries, Ltd.) at a concentration of 10 μM was added to a culture medium. The culture medium was changed every day. For experiments, human iPS cells (the number of passage was 50 or less) were used.
Human iPS cells that had been cultured using the protocol of Example 1 were treated with Accutase for 3 to 5 minutes and were detached and dispersed to single cells. The resulting cells were suspended in Essential 8™ culture medium containing a final concentration of 5 mg/mL of BSA (Wako Pure Chemical Industries, Ltd.) and a final concentration of 2.5 μM of Y-27632 (Wako Pure Chemical Industries, Ltd.), and a portion thereof was stained with trypan blue and the number of cells was counted. The cell suspension was prepared so as to contain 2×10^5 cells per ml. […]

[7] = Day 1 of culture, 10 μM CCG-1423
[8] = size range 40- μm, Day 1 of culture
[9] = size range 60- μm, Day 1 of culture
[10] = size range 80- μm, Day 1 of culture
[11] = size range 100- μm, Day 1 of culture
[12] = size range 120- μm, Day 1 of culture
[13] = size range 140- μm, Day 1 of culture
[14] = size range 160- μm, Day 1 of culture
[15] = size range 180- μm, Day 1 of culture
[16] = size range 200- μm, Day 1 of culture
[17] = size range 220- μm, Day 1 of culture
[18] = size range 240- μm, Day 1 of culture
[19] = size range 260- μm, Day 1 of culture
[20] = size range 280- μm, Day 1 of culture
[21] = size range 300- μm, Day 1 of culture

## CC(ONC(=O)c1cc(C(F)(F)F)cc(C(F)(F)F)c1)C(=O)Nc1ccc(Cl)cc1 (stereo not drawn) [CCG-1423, N-[2-[4(4-chlorophenyl)amino]-1-methyl-2-oxoethoxy]-3,5-bis(trifluoromethyl)-benzamide]
[1]
  number of dead cells compared to the control test (0 μM CCG-1423): reduced
[2]
  glucose consumption: increased daily
[3]
  proliferation of the number of seeded cells (8×10^5 cells/well): approximately 8.5 fold
[4]; 10 μM CCG-1423, 6-well plate, FIG. 3
  cell aggregate formation after seeding to Day 1 of culture: cell aggregates were formed
[4]; 10 μM CCG-1423 until Day 1, then medium exchanged daily, Day 1 to Day 5, FIG. 3
  cell aggregates on continued culture to Day 5: cell aggregates were expanded
[4]; [7]
  percentage of cell aggregates with size (diameter) 60 μm or more and 300 μm or less: 99.5%
  percentage of cell aggregates with size (diameter) 80 μm or more and 300 μm or less: 98.5%
  percentage of cell aggregates with size (diameter) 100 μm or more and 300 μm or less: 98.5%
[4]; Day 1 of culture, 10 μM CCG-1423, 208 cell aggregates
  average±standard deviation of cell aggregate size (diameter): 171.3±22.8 μm
[4]; Day 1 of culture, 10 μM CCG-1423, to total cell aggregate count
  percentage of cell aggregates with size (diameter) 40 μm or more and 300 μm or less: 100%
[4]; [8]
  Number of cell aggregates by size: 1
  Percentage of cell aggregates by size: 0.5%
[4]; [9]
  Number of cell aggregates by size: 2
  Percentage of cell aggregates by size: 1.0%
[4]; [10]
  Number of cell aggregates by size: 0
  Percentage of cell aggregates by size: 0.0%
[4]; [11]
  Number of cell aggregates by size: 2
  Percentage of cell aggregates by size: 1.0%
[4]; [12]
  Number of cell aggregates by size: 6
  Percentage of cell aggregates by size: 2.9%
[4]; [13]
  Number of cell aggregates by size: 39
  Percentage of cell aggregates by size: 18.8%
[4]; [14]
  Number of cell aggregates by size: 87
  Percentage of cell aggregates by size: 41.8%
[4]; [15]
  Number of cell aggregates by size: 60
  Percentage of cell aggregates by size: 28.8%
[4]; [16]
  Number of cell aggregates by size: 9
  Percentage of cell aggregates by size: 4.3%
[4]; [17]
  Number of cell aggregates by size: 2
  Percentage of cell aggregates by size: 1.0%
[4]; [18]
  Number of cell aggregates by size: 0
  Percentage of cell aggregates by size: 0.0%
[4]; [19]
  Number of cell aggregates by size: 0
  Percentage of cell aggregates by size: 0.0%
[4]; [20]
  Number of cell aggregates by size: 0
  Percentage of cell aggregates by size: 0.0%
[4]; [21]
  Number of cell aggregates by size: 0
  Percentage of cell aggregates by size: 0.0%
[5]
  percentage of cells positive for Nanog: ≥ 99%
  percentage of cells positive for OCT4: ≥ 97%
  percentage of cells positive for SOX2: ≥ 99%
[6]
  cell aggregation compared to the control test (0 μM CCG-1423): aggregation was promoted
